# pIC50: −log10 of the molar value.
# Tests used:
# [1] = molecular target: T1, Receptor-type tyrosine-protein kinase FLT3 (Homo sapiens, UniProt P36888); test: Inhibition of FLT3 (unknown origin) by immobilized metal ion affinity-based fluorescence polarization
# T1 sequence (P36888 whole entry): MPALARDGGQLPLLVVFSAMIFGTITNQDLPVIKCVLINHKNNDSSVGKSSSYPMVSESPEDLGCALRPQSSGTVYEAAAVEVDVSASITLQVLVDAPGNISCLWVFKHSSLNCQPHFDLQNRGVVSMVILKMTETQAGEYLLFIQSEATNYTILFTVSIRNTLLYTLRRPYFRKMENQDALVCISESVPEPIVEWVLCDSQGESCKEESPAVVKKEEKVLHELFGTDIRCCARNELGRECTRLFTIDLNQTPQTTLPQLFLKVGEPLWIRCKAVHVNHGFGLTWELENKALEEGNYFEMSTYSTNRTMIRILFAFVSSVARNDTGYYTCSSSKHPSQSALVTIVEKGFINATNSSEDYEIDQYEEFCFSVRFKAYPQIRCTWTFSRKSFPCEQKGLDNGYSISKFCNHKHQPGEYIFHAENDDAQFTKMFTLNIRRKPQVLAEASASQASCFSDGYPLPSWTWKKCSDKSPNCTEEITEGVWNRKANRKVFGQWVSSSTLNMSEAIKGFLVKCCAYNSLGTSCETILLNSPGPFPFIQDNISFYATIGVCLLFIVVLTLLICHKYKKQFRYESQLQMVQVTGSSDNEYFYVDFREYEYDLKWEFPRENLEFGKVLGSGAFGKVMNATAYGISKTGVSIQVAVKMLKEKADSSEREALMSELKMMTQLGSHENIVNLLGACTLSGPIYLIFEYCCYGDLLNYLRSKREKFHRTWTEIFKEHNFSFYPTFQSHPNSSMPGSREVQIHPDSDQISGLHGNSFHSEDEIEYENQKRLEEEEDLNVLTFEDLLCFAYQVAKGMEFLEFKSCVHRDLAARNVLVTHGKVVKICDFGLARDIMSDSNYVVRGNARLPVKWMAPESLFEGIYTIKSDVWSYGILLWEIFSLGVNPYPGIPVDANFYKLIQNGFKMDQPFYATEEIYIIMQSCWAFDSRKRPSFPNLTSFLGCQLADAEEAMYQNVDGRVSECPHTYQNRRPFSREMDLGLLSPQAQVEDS
# [2] = molecular target: Fibroblast growth factor receptor 2 (Homo sapiens, UniProt P21802); test: Inhibition of FGFR2 (unknown origin)
# Sequence of Fibroblast growth factor receptor 2 (P21802 whole entry): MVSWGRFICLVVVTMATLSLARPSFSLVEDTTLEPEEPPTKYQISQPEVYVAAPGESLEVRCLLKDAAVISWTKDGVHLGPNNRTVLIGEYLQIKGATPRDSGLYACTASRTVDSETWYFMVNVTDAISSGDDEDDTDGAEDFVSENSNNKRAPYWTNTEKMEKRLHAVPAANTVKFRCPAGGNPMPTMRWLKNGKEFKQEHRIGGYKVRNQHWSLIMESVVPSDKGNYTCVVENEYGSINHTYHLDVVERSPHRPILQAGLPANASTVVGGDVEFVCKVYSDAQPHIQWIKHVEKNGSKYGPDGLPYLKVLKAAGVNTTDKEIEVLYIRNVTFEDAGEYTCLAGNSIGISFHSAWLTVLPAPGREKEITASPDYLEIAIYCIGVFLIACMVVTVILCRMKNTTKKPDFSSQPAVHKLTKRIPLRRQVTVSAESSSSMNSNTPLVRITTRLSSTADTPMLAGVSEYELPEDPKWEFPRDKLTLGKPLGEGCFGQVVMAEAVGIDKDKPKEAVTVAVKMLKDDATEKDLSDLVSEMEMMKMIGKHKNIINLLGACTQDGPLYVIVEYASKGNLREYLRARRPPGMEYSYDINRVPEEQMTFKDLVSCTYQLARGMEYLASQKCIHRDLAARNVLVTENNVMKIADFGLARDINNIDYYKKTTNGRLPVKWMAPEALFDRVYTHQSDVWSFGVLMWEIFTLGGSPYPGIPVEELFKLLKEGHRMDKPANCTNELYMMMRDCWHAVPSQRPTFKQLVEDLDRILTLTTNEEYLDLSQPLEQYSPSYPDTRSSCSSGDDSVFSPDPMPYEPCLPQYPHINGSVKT
smiles,measurement,setting,value
Nc1ncc(-c2ccncc2)nc1Nc1ccc2[nH]ccc2c1 [AKN-028],pIC50,[1],8.22
same,pIC50,[2],6.92

# Source: ChEMBL document CHEMBL6071202, “Design, Synthesis, and Biological Evaluation of 3-Amino-pyrazine-2-carboxamide Derivatives as Novel FGFR Inhibitors” (ACS Med Chem Lett, 2024)
